Data set [1] is described as follows: Trough plasma concentration in child with invasive aspergillosis at 30 mg/day for 5 days measured on last day of therapy. It is filed as ADME, organism-based. The settings on record: human, read-out: Cmin.
Data set [2] is described as follows: Peak plasma concentration in child with invasive aspergillosis administered at 30 mg/day schedule for 5 days followed by 48 hrs temporary treatment interruption measured on first day of resumption of therapy. It is filed as ADME, organism-based. The settings on record: human. Further details: dose 30 mg/day.
For data set [3], the system named is Homo sapiens. Kind of data set: Plasma concentration in human at 5 to 100 mg, iv. The settings on record: in vivo. It is filed as ADME, organism-based.
Data set [4] can be described thus: Peak plasma concentration in child with invasive aspergillosis at 30 mg/day for 5 days measured on last day of therapy. Format: ADME, organism-based. Further details: dose 30 mg/day. The following applies: human.
The next data set relates to Aspergillus fumigatus. The data set is described as follows: Antifungal activity against Aspergillus fumigatus. Format: functional.
For data set [5], the system named is Homo sapiens. The data set is described as follows: Trough plasma concentration in child with invasive aspergillosis administered at 30 mg/day schedule for 5 days followed by 48 hrs temporary treatment interruption measured on first day of resumption of therapy. It is filed as ADME, organism-based. The following applies: in vivo.

Consider one molecule from ChEMBL document CHEMBL1137019, “Maintenance of therapeutic concentrations of caspofungin after temporary treatment interruption (48 hours) in a child with invasive aspergillosis” (Antimicrob Agents Chemother, 2007).

Converted amounts (≈) assume the structure as drawn.

As a reminder, the Cmax is the highest concentration seen after dosing. Broadly, the MIC is the smallest concentration in the dilution series that meets the test's criterion for growth inhibition. A higher MIC goes with weaker potency. Consider `CC[C@H](C)C[C@H](C)CCCCCCCCC(=O)N[C@H]1C[C@@H](O)[C@@H](NCCN)NC(=O)[C@@H]2[C@@H](O)CCN2C(=O)[C@H]([C@H](O)CCN)NC(=O)[C@H]([C@H](O)[C@@H](O)c2ccc(O)cc2)NC(=O)[C@@H]2C[C@@H](O)CN2C(=O)[C@H]([C@@H](C)O)NC1=O` [CASPOFUNGIN], for which the concentration at 120 h in data set [1] is 6700 ng/mL. For the same molecule, the maximum concentration (Cmax) in data set [2] was found to be 5600 ng/mL; in data set [4], 11500 ng/mL. The Cp in the data set on Homo sapiens [3] is 1000 ng/mL. Besides, the minimum inhibitory concentration (MIC) in the data set with Aspergillus fumigatus stood at 0.5 µg/mL (≈ 0.457 µM). The same molecule displayed a Cmin with Homo sapiens [5] of 1900 ng/mL.
